Non-standard residues stand in square brackets, D forms with d. Residues, ends and D or L forms follow the SMILES beside them. ξ: configuration not given here. *: point of attachment. X1 = COC1=CC(=O)N(C(=O)C(O*)C(C)C)C1Cc1ccccc1; Cyclohexanecarbonyl = O=C(C1CCCCC1)*; ξNMe2Val = CC(C)C(C(=O)*)N(C)C; NMeV = CN[CH](C(=O)O)C(C)C; Bn = c1ccc(C*)cc1 Where only a bound is given, the exact number is not on record here.

As for `COC(=O)C(C)NC(=O)C(Cc1ccc(OCc2ccccc2)cc1)NC(=O)C(COCc1ccccc1)NC(=O)C(Cc1c[nH]c2ccccc12)NC(=O)C1CCCCC1` (configuration not stated) (Cyclohexanecarbonyl-WS(Bn)Y(Bn)A-OMe; configuration not given here), the melting point is 181 to 183 °C.

For the compound `Cn1nc(COC(=O)CCC(=O)OCc2nc(NCCCOc3cccc(CN4CCCCC4)c3)n(C)n2)nc1NCCCOc1cccc(CN2CCCCC2)c1`, the melting point fell in the range of 80 to 81.5 °C. The compound `CC(C)(C)c1cc(CCC(=O)OCCOc2ccc(C(C)(C)c3ccc(OCCOC(=O)CCc4cc(C(C)(C)C)c(O)c(C(C)(C)C)c4)cc3)cc2)cc(C(C)(C)C)c1O` came in with a melting point of 104 to 106 °C. For `COC1=CC(=O)N(C(=O)C(OC(=O)C2CCCN2C(=O)C2CCCN2C(=O)C(C(C)C)N(C)C(=O)C(NC(=O)C(C(C)C)N(C)C)C(C)C)C(C)C)C1Cc1ccccc1` (configuration not stated) (ξNMe2Val-V[NMeV]PP-X1; configuration not given here) the value was 143 to 148 °C.

In the case of `COc1cc(C2c3cc4c(cc3C(NC(=O)CNCCCN(CCCCNC(=O)OCc3ccccc3)C(=O)OCc3ccccc3)C3COC(=O)C23)OCO4)cc(OC)c1O` (configuration not stated), the melting point worked out at 255 °C.

`CC(C)[C@H](NC(=O)N(C)Cc1csc(N)n1)C(=O)N[C@@H](Cc1ccccc1)[C@H](O)[C@@H](O)[C@H](Cc1ccccc1)NC(=O)[C@@H](NC(=O)N(C)Cc1csc(N)n1)C(C)C`: the melting point lay within 122 to 124 °C. The figure for `CC1(C)CC(OC(=O)C(CCCCCCC(Cc2ccccc2)(C(=O)OC2CC(C)(C)NC(C)(C)C2)C(=O)OC2CC(C)(C)NC(C)(C)C2)(Cc2ccccc2)C(=O)OC2CC(C)(C)NC(C)(C)C2)CC(C)(C)N1` is 129 to 130 °C; for `CCOc1ccc(C(=CC2(C=C(c3ccc(OCC)cc3)c3ccc(N4CCCC4)cc3)OC(=O)c3c(Cl)c(Cl)c(Cl)c(Cl)c32)c2ccc(N3CCCC3)cc2)cc1` (configuration not stated) it is 221 to 223 °C; for `[C-]#[N+]C1Cc2ccccc2C(=C)c2ccccc21` (configuration not stated) it is 96 to 98 °C. In turn, `O=C1COc2cc3c(cc2O1)C1(CO3)CN(Cc2cnccn2)c2ccccc21` (configuration not stated) had a melting point of 216 to 218 °C.

In turn, `CC(CC(CC(Sc1cc(C(C)(C)C)c(O)c(C(C)(C)C)c1)Sc1cc(C(C)(C)C)c(O)c(C(C)(C)C)c1)Sc1cc(C(C)(C)C)c(O)c(C(C)(C)C)c1)Sc1cc(C(C)(C)C)c(O)c(C(C)(C)C)c1` (configuration not stated) displayed a melting point of 160 to 162 °C. For `CC1=NN(CCCc2ccccc2)C(=O)C1` the value was 103 to 105 °C. For `IC(I)=C(I)CCOCCC(I)=C(I)I` the value was 43.5 to 44.5 °C; for `CC(=O)N1C(C)(C)CC(OC(=O)C(Cc2cc(C(C)(C)C)c(O)c(C(C)(C)C)c2)(Cc2cc(C(C)(C)C)c(O)c(C(C)(C)C)c2)C(=O)OC2CC(C)(C)N(C(C)=O)C(C)(C)C2)CC1(C)C`, 202 °C; for `CCCCN(c1nc(N(CCCC)C2CC(C)(C)N(OCC(C)(C)O)C(C)(C)C2)nc(N(CCCC)C2CC(C)(C)N(OCC(C)(C)O)C(C)(C)C2)n1)C1CC(C)(C)N(OCC(C)(C)O)C(C)(C)C1`, 172 to 176 °C.

As to `CC(C)[C@H](NC(=O)N(C)Cc1cscn1)C(=O)N[C@@H](Cc1ccccc1)[C@H](O)[C@@H](O)[C@H](Cc1ccccc1)NC(=O)[C@@H](NC(=O)N(C)Cc1csc(N)n1)C(C)C`, the melting point was in the range of 118 to 120 °C. For `O=C(Cl)C(F)(F)F` the value was -146 °C; for `C=CC1=C(C)c2cc3[nH]c(cc4nc(cc5[nH]c(cc1n2)c(C)c5CCC(=O)OC(CN(C)C)CN(C)C)C(CCC(=O)OC(CN(C)C)CN(C)C)=C4C)c(C)c3C=C`, 181 to 190 °C; for `COc1cc(OC)c(C=CC(c2ccc(OC)c(CC(=O)O)c2)(S(N)(=O)=O)S(=O)(=O)C(C=Cc2c(OC)cc(OC)cc2OC)(c2ccc(OC)c(CC(=O)O)c2)S(N)(=O)=O)c(OC)c1` (configuration not stated), 180 to 184 °C. For `CC(C)CCCC(C)CCC1(CCC(C)CCCC(C)C)c2cc(Br)ccc2-c2ccc(-c3nc4cc5sc(-c6ccc7c(c6)C(CCC(C)CCCC(C)C)(CCC(C)CCCC(C)C)c6cc(Br)ccc6-7)nc5cc4s3)cc21` (configuration not stated) the value was 163 to 166 °C. On to `CC(C)[C@@H](NC(=O)[C@@H](CSC(c1ccccc1)(c1ccccc1)c1ccccc1)NC(=O)[C@@H](C)NC(=O)C[C@H](O)/C=C/CCSC(c1ccccc1)(c1ccccc1)c1ccccc1)C(=O)NCC(=O)O`, for which the melting point lay in the range of 191 to 193 °C. For `CCCCCCCCCCCC(=O)OC(CCCCCCCCCCC)CC(=O)NC(CCOP(=O)(Oc1ccccc1)Oc1ccccc1)C(=O)OCc1ccccc1` (configuration not stated) the value was 31 to 32.1 °C; for `Cn1cncc1C(O)(c1ccoc1)c1ccc2c(c1)c(-c1cccc(Cl)c1)cc1nnnn12` (configuration not stated), 188 °C. `COc1cc(OC)c(/C=C/C(c2ccc(OC)c(NC(=O)c3ccc(N)cc3)c2)S(=O)(=O)C(/C=C/c2c(OC)cc(OC)cc2OC)c2ccc(OC)c(NC(=O)c3ccc(N)cc3)c2)c(OC)c1` (configuration not stated) returned a melting point of 137 to 140 °C. The figure for `CC(=O)OCC(COC(C)=O)NC(=O)c1c(I)c(C(=O)NC(COC(C)=O)COC(C)=O)c(I)c(N2C(=O)OCC2CO)c1I` (configuration not stated) is 235 to 240 °C; for `CCNC(=O)[C@@H](C)NC(=O)[C@H](Cc1c[nH]cn1)NC(=O)[C@H](COCc1ccccc1)NC(=O)[C@H](Cc1ccc(OCc2ccccc2)cc1)NC(=O)[C@H](Cc1c[nH]cn1)NCc1ccccc1` it is 83 to 88 °C; for `N=S(=O)(C=Cc1ccccc1N)c1ccccc1` (configuration not stated) it is 95 to 96 °C.

`O=C(OCCCCCCOc1ccc(-c2ccccc2)cc1)c1cc([N+](=O)[O-])ccc1-c1ccc([N+](=O)[O-])cc1C(=O)OCCCCCCOc1ccc(-c2ccccc2)cc1` showed a melting point of 121 to 122 °C. For `O=[N+]([O-])c1ccc2cn[nH]c(=S)c2c1` the value was 233 to 234 °C; for `C[C@H](Cc1ccc(OCCCN2CCCCC2)c(OCCCN2CCCCC2)c1)[C@@H](C)Cc1ccc(OCCCN2CCCCC2)c(OCCCN2CCCCC2)c1`, 84 to 86 °C. The figure for `CC(=O)Nc1cc(N2CCN(Cc3ccccc3)CC2)ccc1OCC(=O)N[C@@H](CC(N)=O)C(=O)N[C@@H](Cc1ccccc1)[C@H](O)C(=O)N1CCC[C@H]1C(=O)NC(C)(C)C` is 119 to 127 °C; for `CCOC(=O)C(C)c1cc(C)c(C(=O)c2ccc(Cl)cc2)n1C` (configuration not stated) it is 88 to 90 °C. For `CC(C)(C)CC(C)(C)c1cc(-n2nc3ccc(-c4ccc(-c5ccc6nn(-c7cc(C(C)(C)CC(C)(C)C)cc(C(C)(C)c8ccccc8)c7O)nc6c5)cc4)cc3n2)c(O)c(C(C)(C)c2ccccc2)c1` the value was 247 to 249 °C; for `CC(C)[C@H](NC(=O)N(C)Cc1csc(NC(=O)OC(C)(C)C)n1)C(=O)N[C@@H](Cc1ccccc1)[C@H](O)[C@@H](O)[C@H](Cc1ccccc1)NC(=O)[C@@H](NC(=O)N(C)Cc1csc(NC(=O)OC(C)(C)C)n1)C(C)C`, 138 to 140 °C. On to `CCOCc1nc(C(C)(C)O)c(C(=O)OCc2oc(=O)oc2C)n1Cc1ccc(-c2ccccc2-c2nnnn2C(c2ccccc2)(c2ccccc2)c2ccccc2)cc1`, for which the melting point fell in the range of 129 to 130 °C. The figure for `CCCCCCCCOc1ncc(-c2ccc(C(OC(c3ccc(-c4cnc(OCCCCCCCC)nc4)cc3)C3COC4(CCCCC4)O3)C3COC4(CCCCC4)O3)cc2)cn1` (configuration not stated) is 93.4 °C; for `CCCCC(CC)C(=O)Cl` (configuration not stated) it is below -75 °C.

The record behind these values is a melting point compilation (Tetko et al.).
